# Measured values: patent US20090181898A1, “ABUSE-RESISTANT A[…]” (SHIRE LLC, priority 2002, published 2009)
# Several values for one entry are separate records, joined by “and”; a condition that tells them apart may be missing. Equal entries are not always repeated.
# Assay: Clinical pharmacokinetics, 25 and 75 mg, compared to Adderall XR and Dexedrine Spansule
# Conditions: for AUC(0-inf) / AUC(0-t) / Cmax / half-life / Tmax / concentration at 0 h / concentration at 0.5 h / concentration at 1 h / concentration at 2 h / concentration at 3 h / concentration at 4 h / concentration at 5 h / concentration at 6 h / concentration at 7 h / concentration at 8 h / concentration at 10 h / concentration at 12 h / concentration at 16 h / concentration at 24 h / concentration at 48 h / concentration at 72 h / L-lysine-d-amphetamine intact conjugate concentration / L-lysine-d-amphetamine intact conjugate AUCinf / L-lysine-d-amphetamine intact conjugate AUClast / L-lysine-d-amphetamine intact conjugate Cmax / L-lysine-d-amphetamine intact conjugate Tmax: human; for AUC(0-inf) / AUC(0-t) / Cmax / half-life / Tmax / concentration at 0 h / concentration at 0.5 h / concentration at 1 h / concentration at 2 h / concentration at 3 h / concentration at 4 h / concentration at 5 h / concentration at 6 h / concentration at 7 h / concentration at 8 h / concentration at 10 h / concentration at 12 h / concentration at 16 h / concentration at 24 h / concentration at 48 h / concentration at 72 h: in vivo, po; for AUC(0-inf): L-lysine-d-amphetamine intact conjugate AUCinf; for AUC(0-t): L-lysine-d-amphetamine intact conjugate AUClast; for Cmax: L-lysine-d-amphetamine intact conjugate Cmax; for half-life: L-lysine-d-amphetamine intact conjugate T1/2, human; for Tmax: L-lysine-d-amphetamine intact conjugate Tmax; for concentration at 0 h / concentration at 0.5 h / concentration at 1 h / concentration at 2 h / concentration at 3 h / concentration at 4 h / concentration at 5 h / concentration at 6 h / concentration at 7 h / concentration at 8 h / concentration at 10 h / concentration at 12 h / concentration at 16 h / concentration at 24 h / concentration at 48 h / concentration at 72 h: L-lysine-d-amphetamine intact conjugate concentration
# [1] = 25 mg, oral 25 mg L-lysine-d-amphetamine, mean
# [2] = 25 mg, oral 25 mg L-lysine-d-amphetamine, individual subjects
# [3] = 75 mg, oral 75 mg L-lysine-d-amphetamine, mean
# [4] = 75 mg, oral 75 mg L-lysine-d-amphetamine, individual subjects
# [5] = oral 25 mg L-lysine-d-amphetamine, individual subjects
# [6] = oral 75 mg L-lysine-d-amphetamine, individual subjects
smiles,measurement,setting,value
"CC(Cc1ccccc1)NC(=O)C(N)CCCCN [L-lysine-d-amphetamine, 2,6-diaminohexanoic acid-(1-methyl-2-phenylethyl)-amide]",AUC(0-inf),[1],0.0135 µg·h/mL
same,AUC(0-t),[1],0.0113 µg·h/mL
same,Cmax,[1],0.0116 µg/mL
same,half-life,[2],0.47 h
same,half-life,[1],0.419 h
same,Tmax,[2],1 h
same,Tmax,[1],1.05 h
same,concentration at 0 h,[2],0 µg/mL
same,concentration at 0 h,[1],0 µg/mL
same,concentration at 0.5 h,[1],0.0051 µg/mL
same,concentration at 1 h,"25 mg, oral 25 mg L-lysine-d-amphetamine, 1 h, mean",0.0112 µg/mL
same,concentration at 2 h,"25 mg, oral 25 mg L-lysine-d-amphetamine, 2 h, mean",0.0022 µg/mL
same,concentration at 3 h,"25 mg, oral 25 mg L-lysine-d-amphetamine, 3 h, individual subjects",0 µg/mL
same,concentration at 3 h,"25 mg, oral 25 mg L-lysine-d-amphetamine, 3 h, mean",0 µg/mL
same,concentration at 4 h,"25 mg, oral 25 mg L-lysine-d-amphetamine, 4 h, individual subjects",0 µg/mL
same,concentration at 4 h,"25 mg, oral 25 mg L-lysine-d-amphetamine, 4 h, mean",0 µg/mL
same,concentration at 5 h,"25 mg, oral 25 mg L-lysine-d-amphetamine, 5 h, individual subjects",0 µg/mL
same,concentration at 5 h,"25 mg, oral 25 mg L-lysine-d-amphetamine, 5 h, mean",0 µg/mL
same,concentration at 6 h,"25 mg, oral 25 mg L-lysine-d-amphetamine, 6 h, individual subjects",0 µg/mL
same,concentration at 6 h,"25 mg, oral 25 mg L-lysine-d-amphetamine, 6 h, mean",0 µg/mL
same,concentration at 7 h,"25 mg, oral 25 mg L-lysine-d-amphetamine, 7 h, individual subjects",0 µg/mL
same,concentration at 7 h,"25 mg, oral 25 mg L-lysine-d-amphetamine, 7 h, mean",0 µg/mL
same,concentration at 8 h,"25 mg, oral 25 mg L-lysine-d-amphetamine, 8 h, individual subjects",0 µg/mL
same,concentration at 8 h,"25 mg, oral 25 mg L-lysine-d-amphetamine, 8 h, mean",0 µg/mL
same,concentration at 10 h,"25 mg, oral 25 mg L-lysine-d-amphetamine, 10 h, individual subjects",0 µg/mL
same,concentration at 10 h,"25 mg, oral 25 mg L-lysine-d-amphetamine, 10 h, mean",0 µg/mL
same,concentration at 12 h,"25 mg, oral 25 mg L-lysine-d-amphetamine, 12 h, individual subjects",0 µg/mL
same,concentration at 12 h,"25 mg, oral 25 mg L-lysine-d-amphetamine, 12 h, mean",0 µg/mL
same,concentration at 16 h,[2],0 µg/mL
same,concentration at 16 h,[1],0 µg/mL
same,concentration at 24 h,[2],0 µg/mL
same,concentration at 24 h,[1],0 µg/mL
same,concentration at 48 h,[2],0 µg/mL
same,concentration at 48 h,[1],0 µg/mL
same,concentration at 72 h,[2],0 µg/mL
same,concentration at 72 h,[1],0 µg/mL
same,AUC(0-inf),[3],0.0595 µg·h/mL
same,AUC(0-t),[3],0.0581 µg·h/mL
same,Cmax,[3],0.0536 µg/mL
same,half-life,[3],0.534 h
same,Tmax,[4],1 h
same,Tmax,[3],1.05 h
same,concentration at 0 h,[4],0 µg/mL
same,concentration at 0 h,[3],0 µg/mL
same,concentration at 0.5 h,[3],0.0205 µg/mL
same,concentration at 1 h,"75 mg, oral 75 mg L-lysine-d-amphetamine, 1 h, mean",0.053 µg/mL
same,concentration at 2 h,"75 mg, oral 75 mg L-lysine-d-amphetamine, 2 h, mean",0.0091 µg/mL
same,concentration at 3 h,"75 mg, oral 75 mg L-lysine-d-amphetamine, 3 h, mean",0.0026 µg/mL
same,concentration at 4 h,"75 mg, oral 75 mg L-lysine-d-amphetamine, 4 h, mean",0.0008 µg/mL
same,concentration at 5 h,"75 mg, oral 75 mg L-lysine-d-amphetamine, 5 h, individual subjects",0 µg/mL
same,concentration at 5 h,"75 mg, oral 75 mg L-lysine-d-amphetamine, 5 h, mean",0 µg/mL
same,concentration at 6 h,"75 mg, oral 75 mg L-lysine-d-amphetamine, 6 h, individual subjects",0 µg/mL
same,concentration at 6 h,"75 mg, oral 75 mg L-lysine-d-amphetamine, 6 h, mean",0 µg/mL
same,concentration at 7 h,"75 mg, oral 75 mg L-lysine-d-amphetamine, 7 h, individual subjects",0 µg/mL
same,concentration at 7 h,"75 mg, oral 75 mg L-lysine-d-amphetamine, 7 h, mean",0 µg/mL
same,concentration at 8 h,"75 mg, oral 75 mg L-lysine-d-amphetamine, 8 h, individual subjects",0 µg/mL
same,concentration at 8 h,"75 mg, oral 75 mg L-lysine-d-amphetamine, 8 h, mean",0 µg/mL
same,concentration at 10 h,"75 mg, oral 75 mg L-lysine-d-amphetamine, 10 h, individual subjects",0 µg/mL
same,concentration at 10 h,"75 mg, oral 75 mg L-lysine-d-amphetamine, 10 h, mean",0 µg/mL
same,concentration at 12 h,"75 mg, oral 75 mg L-lysine-d-amphetamine, 12 h, individual subjects",0 µg/mL
same,concentration at 12 h,"75 mg, oral 75 mg L-lysine-d-amphetamine, 12 h, mean",0 µg/mL
same,concentration at 16 h,[4],0 µg/mL
same,concentration at 16 h,[3],0 µg/mL
same,concentration at 24 h,[4],0 µg/mL
same,concentration at 24 h,[3],0 µg/mL
same,concentration at 48 h,[4],0 µg/mL
same,concentration at 48 h,[3],0 µg/mL
same,concentration at 72 h,[4],0 µg/mL
same,concentration at 72 h,[3],0 µg/mL
same,L-lysine-d-amphetamine intact conjugate concentration,"oral 25 mg L-lysine-d-amphetamine, 1 h, individual subjects",9.2 ng/mL and 10.9 ng/mL and 11.2 ng/mL and 15.2 ng/mL and 12.5 ng/mL and 9.1 ng/mL and 2.7 ng/mL and 20.1 ng/mL and 10.5 ng/mL and 10.8 ng/mL
same,L-lysine-d-amphetamine intact conjugate concentration,"oral 25 mg L-lysine-d-amphetamine, 2 h, individual subjects",2.1 ng/mL and 3.1 ng/mL and 1.4 ng/mL and 2.5 ng/mL and 2.9 ng/mL and 1.9 ng/mL and 4.0 ng/mL and 2.3 ng/mL and 0 ng/mL and 1.7 ng/mL
same,L-lysine-d-amphetamine intact conjugate concentration,"oral 25 mg L-lysine-d-amphetamine, 3 h, individual subjects",0 ng/mL
same,L-lysine-d-amphetamine intact conjugate concentration,"oral 25 mg L-lysine-d-amphetamine, 4 h, individual subjects",0 ng/mL
same,L-lysine-d-amphetamine intact conjugate concentration,"oral 25 mg L-lysine-d-amphetamine, 5 h, individual subjects",0 ng/mL
same,L-lysine-d-amphetamine intact conjugate concentration,"oral 25 mg L-lysine-d-amphetamine, 6 h, individual subjects",0 ng/mL
same,L-lysine-d-amphetamine intact conjugate concentration,"oral 25 mg L-lysine-d-amphetamine, 7 h, individual subjects",0 ng/mL
same,L-lysine-d-amphetamine intact conjugate concentration,"oral 25 mg L-lysine-d-amphetamine, 8 h, individual subjects",0 ng/mL
same,L-lysine-d-amphetamine intact conjugate concentration,"oral 25 mg L-lysine-d-amphetamine, 10 h, individual subjects",0 ng/mL
same,L-lysine-d-amphetamine intact conjugate concentration,"oral 25 mg L-lysine-d-amphetamine, 12 h, individual subjects",0 ng/mL
same,L-lysine-d-amphetamine intact conjugate AUCinf,[5],0.01062 µg·h/mL and 0.01283 µg·h/mL and 0.01164 µg·h/mL and 0.01766 µg·h/mL and 0.01265 µg·h/mL and 0.009759 µg·h/mL and 0.01956 µg·h/mL and 0.0133 µg·h/mL
same,L-lysine-d-amphetamine intact conjugate AUClast,[5],0.00918 µg·h/mL and 0.01041 µg·h/mL and 0.01095 µg·h/mL and 0.01631 µg·h/mL and 0.01068 µg·h/mL and 0.008583 µg·h/mL and 0.005439 µg·h/mL and 0.01851 µg·h/mL and 0.01077 µg·h/mL and 0.01235 µg·h/mL
same,L-lysine-d-amphetamine intact conjugate Cmax,[5],0.00918 µg/mL and 0.0109 µg/mL and 0.0112 µg/mL and 0.0152 µg/mL and 0.0125 µg/mL and 0.00905 µg/mL and 0.00618 µg/mL and 0.0201 µg/mL and 0.0105 µg/mL and 0.0108 µg/mL
same,L-lysine-d-amphetamine intact conjugate Tmax,[5],1.5 h
same,L-lysine-d-amphetamine intact conjugate AUCinf,[6],0.0525 µg·h/mL and 0.087 µg·h/mL and 0.045 µg·h/mL and 0.033 µg·h/mL and 0.0449 µg·h/mL and 0.0523 µg·h/mL and 0.0342 µg·h/mL and 0.0314 µg·h/mL and 0.1029 µg·h/mL and 0.1117 µg·h/mL
same,L-lysine-d-amphetamine intact conjugate AUClast,[6],0.0512 µg·h/mL and 0.0861 µg·h/mL and 0.0442 µg·h/mL and 0.032 µg·h/mL and 0.0437 µg·h/mL and 0.0504 µg·h/mL and 0.0309 µg·h/mL and 0.0298 µg·h/mL and 0.1021 µg·h/mL and 0.1108 µg·h/mL
same,L-lysine-d-amphetamine intact conjugate Cmax,[6],0.048 µg/mL and 0.0801 µg/mL and 0.0405 µg/mL and 0.029 µg/mL and 0.0415 µg/mL and 0.0265 µg/mL and 0.0308 µg/mL and 0.0234 µg/mL and 0.127 µg/mL and 0.0889 µg/mL
same,L-lysine-d-amphetamine intact conjugate Tmax,[6],1.5 h
same,Intact conjugate as percent of total drug absorption (AUCinf-molar basis),"humans, oral, 25 mg",1.6%
same,Bioavailability over twelve hours vs Adderall XR® (d-amphetamine plus l-amphetamine levels),"humans, oral, 75 mg",approximately equivalent
same,Bioavailability over twelve hours vs Dexedrine Spansule®,"humans, oral, 75 mg",over twenty percent higher
same,Intact conjugate as percent of total drug absorption (AUCinf-molar basis),"humans, oral, 75 mg",2.0%
same,Bioavailability (AUCinf) of d-amphetamine vs both extended release amphetamine products,"humans, oral, 75 mg vs Adderall XR® 35 mg and Dexedrine Spansule® 30 mg",approximately equivalent
same,Time of peak levels of intact conjugate,"humans, oral, 25 and 75 mg",about one hour
same,Elimination of intact conjugate,"humans, oral, even at the highest dose",no detectable concentrations present by five hours
